Series [1] deals with Full length human DNAPK protein (Homo sapiens, UniProt P78527). Briefly: DNA-PK enzymatic assay (TR-FRET). The class given is biochemical. The following applies: 10 μM ATP, 1.6 μM peptide substrate.
The test system of series [2] is Rat hepatocyte. Briefly: Metabolic stability assay (rat hepatocyte Clint). The following applies: 1 μM compound, cryopreserved hepatocytes 1 million cells per mL. It is filed as in vitro ADME. The method in brief:
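Compound at 1 μM incubated with cryopreserved rat hepatocytes, 1 million cells/mL, sampled 0–120 min with acetonitrile quench and LC-MS/MS quantitation. CLint (μL/min/E6) derived from elimination rate constant and half-life of parent disappearance, scaled by cell concentration.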

The nature of series [3]: Metabolic stability assay (human microsomal Clint). It is filed as in vitro ADME. The following applies: 1 μM compound, 1 mg/mL microsomes, 1 mM NADPH, 37° C. Put shortly:
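Compound (1 μM) incubated at 37 °C with pooled human liver microsomes (1 mg/mL) and 1 mM NADPH in 100 mM phosphate, pH 7.4. Samples quenched in acetonitrile at 0–30 min and analysed by LC-MS/MS for parent loss. CLint reported in μl/min/mg.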

Series [4] relates to MDCKII-MDR1-BCRP cell monolayers. Kind of series: MDCKII-MDR1-BCRP efflux assay. It is filed as in vitro ADME. The following applies: 5 μM compound, 120 min, HBSS pH 7.4. Put shortly:
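Bidirectional (A-B, B-A) transport of 5 μM compound across MDCKII-MDR1-BCRP monolayers in HBSS, 25 mM HEPES pH 7.4, ~37° C. for 120 min, triplicate; donor and receiver concentrations measured, monolayer integrity checked with Lucifer yellow. Papp and efflux ratio calculated.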

The nature of series [5]: Brain-blood-barrier penetration assay (short oral absorption model, Kp,uu). It is filed as in vivo. The following applies: male Han Wistar rats, oral 10 mg/kg in 1% methylcellulose, AUC(brain)/AUC(plasma)×(fu,brain/fu.plasma). As for the experimental part:
It is believed that Kp,uu, the relationship between concentrations of unbound drug in brain and in plasma, is the key to prediction of CNS action and should be the main parameter measured and optimized for in drug discovery (Di L et al., Journal of Medicinal Chemistry [2013], 56: 2-12).
In vitro plasma and brain binding assay was carried out by using equilibrium dialysis method with semi-permeable membrane. Plasma and diluted brain homogenate (1:4 with DPBS pH7.4) were spiked with 5 μM test compound (in triplicate) and dialyzed against equal volume of 150 μL 100 mM PBS buffer (pH7.4) at 37° C. for 18 hours in a slowly rotated plate. At the end of incubation, a 50 μL aliquot from the receiver side and a 5 μL from the donor chamber were taken. The 5 μL sample was further diluted with 45 μL of blank plasma or brain homogenate. Paired samples were matrix-matched with either buffer or blank plasma/brain homogenate and mixed for 2 min, and then precipitated with 150 μL cold acetonitrile with 100 ng/mL tolbutamide as internal standard. After centrifuging at 4000 rpm for 20 min, supernatant was diluted with 0.1% formic acid aqueous solution and analyzed for LC/MS/MS (API 4000, Applied Biosystems, Foster City). Unbound fraction (fu) of test compound in the brain homogenate and diluted plasma were calculated by the ratio of the buffer side response to the brain homogenate/plasma side response, and unbound fraction (fu,pl and fu,br) of test compound in non-diluted plasma and tissue were calculated from measured fu in homogenate and plasma with the following equation: fu,bl (fu,br)=(1/D)/[(1/fu−1)+1/D)]. D is dilution factor.
A Short oral absorption (SOA) model is an in-vivo screening model to identify brain penetration of a compound. Six male Han Wistar rats purchased from Beijing Vital River were orally dosed with the compound at 10 mg/kg in 1% methylcellulose At 0.5, 1, 2, 4, 7 and 16 hour post-dose, cerebral spinal fluid (CSF) was collected from cisterna magna. Plasma samples will be processed for plasma by centrifugation at approximately 4° C., 3,000 g within half an hour of collection. Plasma samples will be removed to a labeled tube and stored at −80 degree until analysis. Brain tissue was harvested and homogenized in 3× volume of 100 mM phosphate buffered saline (pH7.4). All samples were stored at ˜−70° C. prior to LC/MS/MS analysis.
Standards were prepared by spiking blank plasma, brain homogenate and artificial CSF covering 0.5 to 500 ng/mL. Homogenized brain tissue along with plasma samples were precipitated by adding 3-fold volume of cold acetonitrile containing internal standard (40 ng/mL Dexamethasone and 40 ng/mL Diclofenac), and 10 μL of CSF samples were precipitated with 100 μL of cold acetonitrile containing internal standard. After 2 min vortex and 5 min centrifugation at 14,000 rpm, supernatant was analyzed by LC/MS/MS (API 4000, Applied Biosystems, Foster City). Two sets of standard curves were run at the beginning and end of each batch from plasma sample analysis. For brain and CSF samples, one standard curve was analyzed along with test samples.
Total brain levels, expressed as brain/plasma ratio (Kp) were measured by AUCbrain/AUCplasma in rodents after oral administration. Free fraction of test compound in biological matrix was determined by in vitro plasma and brain binding assay. Kp,uu was calculated by the following equation: Kp,uu=AUC (brain)/AUC (plasma)×(fu,brain/fu.plasma).

In the case of `Cc1cc2ncnn2cc1Nc1ncc2c(C)nn(C3CCCOCC3)c2n1` (single isomer, unassigned) [Example 34, 3-methyl-N-(7-methyl-[1,2,4]triazolo[1,5-a]pyridin-6-yl)-1-(oxepan-4-yl)-1H-pyrazolo[3,4-d]pyrimidin-6-amine], the IC50 in series [1] was 1.2 nM. The “Rat hepatocyte CLint (μl/min/10^−6 cells)” value in series [2] is listed as 12.7 μl/min/10^−6 cells. The “Human liver microsomal CLint” value in series [3] was determined as 31.4 µL/min/mg. Moreover, the MDCK-Mdr1-BCRP efflux ratio in series [4] was 3.5. The Kp uu in series [5] (male, Han Wistar, rat, brain and plasma, po, 10 mg/kg) was 0.24.
In series [1], `COC1CCC(n2nc(C)c3cnc(Nc4cn5ncnc5cc4C)nc32)C1` (single isomer, unassigned) [Example 111, 1-(3-methoxycyclopentyl)-3-methyl-N-(7-methyl-[1,2,4]triazolo[1,5-a]pyridin-6-yl)-1H-pyrazolo[3,4-d]pyrimidin-6-amine] had an IC50 of 1.1 nM. The “Rat hepatocyte CLint (μl/min/10^−6 cells)” value in series [2] is given as 17.0 μl/min/10^−6 cells. Moreover, in series [3], the “Human liver microsomal CLint” value is 68.5 µL/min/mg. Moreover, the MDCK-Mdr1-BCRP efflux ratio in series [4] is 1.8. Further, the “Kp, uu (brain)” value in series [5] stood at 0.36.
